Measurements published in patent publication US20110224147A1, “METHODS AND COMPOSITIONS” (Relevare Aust. Pyt. Ltd., priority 2008, published 2011).
Marks after values point to notes of the source that are not given here.

Key:
normal rats = assay: Open field activity monitor (sedation), normal rats
Description: (§1) All experiments were performed on male Wistar rats, weight 170-220 g for experiments investigating sedation and antinociception using the carrageenan inflammation paradigm and weight 120-200 g for experiments evaluating sedation and antinociception using the diabetic neuropathy model. The experiments were performed in an observer-blinded fashion with parallel positive placebo (gabapentin) and negative placebo (vehicle) treatment controls. All drug solutions and vehicle were given intraperitoneally (ip) in a volume of 1.0 ml.
(§2) Measurement of the movements of a freely moving rat in an open field activity monitor was used. […] The maximum non-sedating doses of each compound alone and in combination were first determined in normal rats and then those doses were tested for sedation in diabetic rats. This was done to be sure that there was no sedation caused by the drugs, particularly in diabetics that are known to be more susceptible to CNS depressants.
(§3) The open field activity monitor (MedAssociates Inc. St. Albans, Vt. 05478, USA) is an enclosure with a quiet and darkened environment. It contains 16 intersecting beams of infrared light. Interruptions of beams by individual rats moving around the enclosure were recorded by computer. These measurements were converted to the total rest time in seconds during a 20 min period in the apparatus. Rest times of drug-treated rats were compared with vehicle-treated controls using ANOVA with Dunnet post hoc test.
(§4) Animals naïve to drug treatment were acclimatized to the lab environment and individual rats were selected randomly from a group one at a time. They were injected (ip) with vehicle, a test drug dose or a combination of drugs in an operator-blinded fashion. Five minutes after the ip injection each rat was placed in the open field activity monitor for a 20-min period.
(§5) Groups of rats were tested with the open field activity monitor as above with the following ip treatments: • vehicle controls, n=121 experiments • CNSB002 at doses 10 and 20 mg/kg, n=20 and 10 experiments • morphine at doses 6.4 and 3.2 mg/kg, n=21 and 20 experiments • a combination of CNSB002 at 10 mg/kg with morphine at 3.2 mg/kg, n=21 experiments • a combination of CNSB002 at 5.0 mg/kg with morphine at 3.2 mg/kg, n=19 experiments • gabapentin at doses of 100 and 50 mg/kg, n=26 each experiments • a combination of GABApentin at 50 mg/kg with morphine at 3.2 mg/kg, n=19 experiments

diabetic rats = assay: Open field activity monitor (sedation), diabetic rats
Description: as §1, §2, §3, §4, §5
Rats were injected ip with streptozotocin (STZ; […] total dose) dissolved in 0.9% w/v sodium chloride solution. The 150 mg dose was given in two 75 mg/kg injections on consecutive days. Diabetes was confirmed one week after injection of STZ by measurement of tail vein blood glucose levels with AccuCheck Active test strips and a reflectance colorimeter (AccuCheck Glucometer, Roche). Only animals with final blood glucose levels ≧15 mM were deemed to be diabetic. The rats were retested for hyperglycaemia once per week to confirm continued high blood glucose readings. Hyperalgesia was assessed by measurement of paw flick latency using the radiant heat plantar test described previously by Hargreaves et al, 1988 supra.

[1] = tested on: carrageenan-induced hyperalgesia; assay: Carrageenan paw inflammation test (paw withdrawal latency, noxious heat); type: in vivo, rat; conditions: for antinociception, significance vs vehicle controls: p>0.05
Description: as §1
Two tests for antinociception were used: the carrageenan paw inflammation test; and the streptozotocin-induced diabetic neuropathy model. Inflammation of the right hind paw was induced by an intraplantar injection of carrageenan (100 μl of a 2% w/v carrageenan solution in saline). Time was allowed for paw inflammation to develop (2 hours). Paw withdrawal latencies were measured using noxious heat from an infrared beam focused onto the plantar surface of the right hind paw in unrestrained animals using apparatus from Ugo Basile (via G. Borghi 43, 21025 Comerio VA—Italy). The method used was originally described by Hargreaves et al, Pain 32:77-88, 1988.
Paw withdrawal latencies were measured at 10 min intervals before the induction of inflammation with carrageenan injection until 3 stable baseline readings were obtained (baseline readings—see FIG. 1). […] A test drug or drug combination was injected intraperitoneally and paw withdrawal values were measured at 10-minute intervals for the following 30 minutes (test drug readings—see FIG. 1).
The following drug treatments were given ip to separate groups of rats: • vehicle controls, n=63 • CNSB002 at dose range 0.5 mg/kg to 10 mg/kg alone, n=14 each • morphine at dose range 0.2 mg/kg to 3.2 mg/kg alone, n=10 each • combinations of CNSB002 at 5 mg/kg with morphine at 0.2, 0.4, 0.8, 1.6 and 3.2 mg/kg, n=10 each • gabapentin alone at 50 mg/kg, n=20 • combination of gabapentin at 50 mg/kg with morphine 3.2 mg/kg, n=20
Drug and placebo/vehicle treatments were compared statistically using ANOVA with Tukey-Kramer post hoc test.

[2] = tested on: hyperalgesia caused by STZ-induced diabetic neuropathy; assay: Streptozotocin-induced diabetic neuropathy model (paw flick latency, radiant heat plantar test); type: in vivo, rat; conditions: diabetic rats
[3] = male, Wistar, rat, in vivo, ip, 10 mg/kg, 20 min
[4] = CNSB002 10 mg/kg ip alone, p<0.01
[5] = gabapentin 50 mg/kg ip alone, p<0.01
[6] = morphine 3.2 mg/kg ip alone, p<0.05

CC(C)(C)c1cc(CN2CCN(CC(O)c3ccc(Cl)cc3)CC2)cc(C(C)(C)C)c1O (stereo not shown) [CNSB002, 1-(2-(4-chlorophenyl)-2-hydroxy)ethyl-4-(3,5-bis(1,1-dimethyl)-4-hydroxyphenyl)methylpiperazine]
total rest time during a 20 min period (mean) (normal rats; [3]): 851.2 s | total rest time during a 20 min period (mean) (normal rats; male, Wistar, rat, in vivo, ip, 20 mg/kg, 20 min): 1001.2* seconds | sedation vs vehicle controls (normal rats; rat, in vivo, ip, 10 mg/kg): did not cause sedation | sedation vs vehicle controls (normal rats; rat, in vivo, ip, 20 mg/kg): sedating | total rest time during a 20 min period (mean) (diabetic rats; [3]): 1005.6 s | sedation vs vehicle controls (diabetic rats; rat, in vivo, ip, 10 mg/kg): not sedating | reversal of carrageenan-induced hyperalgesia ([1]; CNSB002 5 mg/kg ip alone): 35% | reversal of carrageenan-induced hyperalgesia ([1]; CNSB002 10 mg/kg ip alone): 35% | antinociception, significance vs vehicle controls ([1]; CNSB002 0.5-10 mg/kg ip alone): No dose of gabapentin or CNSB002 administered alone caused statistically-significant antinociception | antinociception compared with CNSB002 at 0.5 mg/kg ([1]; CNSB002 5 or 10 mg/kg ip alone): significantly greater | antinociception compared with CNSB002 at 0.5, 1.0 and 2.5 mg/kg ([2]; CNSB002 10 mg/kg ip alone, not vs 5 mg/kg): significantly greater | antinociception, significance vs vehicle controls [2, 4]: significant antinociceptive effect | reversal of hyperalgesia [2, 4]: 26% | antinociception, significance vs vehicle controls ([2]; CNSB002 doses other than 10 mg/kg (0.5-5 mg/kg) ip alone): No other doses of CNSB002 administered alone caused significant antinociception

NCC1(CC(=O)O)CCCCC1 [gabapentin]
total rest time during a 20 min period (mean) (normal rats; normal rats, gabapentin 50 mg/kg ip alone, Table 1C): 753.0 s | sedation vs vehicle controls (normal rats; normal rats, gabapentin 50 mg/kg ip alone, p>0.05): did not cause sedation | total rest time during a 20 min period (mean) (normal rats; normal rats, gabapentin 100 mg/kg ip alone, Table 1C): 881.6* seconds | sedation vs vehicle controls (normal rats; normal rats, gabapentin 100 mg/kg ip alone, p<0.01): caused significant sedation | total rest time during a 20 min period (mean) (diabetic rats; diabetic rats, gabapentin 50 mg/kg ip alone, Table 2A): 985.8 s | sedation vs vehicle controls (diabetic rats; diabetic rats, gabapentin 50 mg/kg ip alone, p>0.05): not sedating | total rest time during a 20 min period (mean) (diabetic rats; diabetic rats, gabapentin 100 mg/kg ip alone, Table 2A): 941.2 s | sedation vs vehicle controls (diabetic rats; diabetic rats, gabapentin 100 mg/kg ip alone, p>0.05): not sedating | antinociception, significance vs vehicle controls ([1]; gabapentin 50 mg/kg ip alone): No dose of gabapentin or CNSB002 administered alone caused statistically-significant antinociception | antinociception, significance vs vehicle controls [2, 5]: equally significant antinociception | reversal of hyperalgesia [2, 5]: 26%

CN1CC[C@]23c4c5ccc(O)c4O[C@H]2[C@@H](O)C=C[C@H]3[C@H]1C5 [morphine]
sedation vs vehicle controls (normal rats; normal rats, doses of morphine up to 6.4 mg/kg ip): sedation was not caused | total rest time during a 20 min period (mean) (normal rats; normal rats, morphine 3.2 mg/kg ip alone, Table 1B): 961.0 s | sedation vs vehicle controls (normal rats; normal rats, morphine 3.2 mg/kg ip alone, p>0.05 unpaired t test): did not cause sedation | total rest time during a 20 min period (mean) (diabetic rats; diabetic rats, morphine 3.2 mg/kg ip alone, Table 2A): 943.6 s | sedation vs vehicle controls (diabetic rats; diabetic rats, morphine 3.2 mg/kg ip alone, p>0.05): not sedating | total rest time during a 20 min period (mean) (diabetic rats; diabetic rats, morphine 6.4 mg/kg ip alone, Table 2B): 972.6* seconds | sedation vs vehicle controls (diabetic rats; diabetic rats, morphine 6.4 mg/kg ip alone, p<0.01): caused sedation | reversal of carrageenan-induced hyperalgesia ([1]; morphine 3.2 mg/kg ip alone): 24% | antinociception, significance vs vehicle controls ([1]; morphine 0.2-3.2 mg/kg ip alone): caused no significant antinociception | antinociception, significance vs vehicle controls [2, 6]: significant antinociceptive effect | reversal of hyperalgesia [2, 6]: 30% | antinociception, significance vs vehicle controls ([2]; morphine alone ip, doses below the highest dose 3.2 mg/kg, p>0.05): No dose of morphine alone caused significant antinociception
